Test results from patent US20070140978A1, “Adrenergic complement inhaler” (priority 2004, published 2007).

System: child with severe nasal congestion due to a cold
Assay: Severe nasal congestion due to a cold, child
Assay type: in vivo, human
Details: every four hours
Description: A child presents with severe nasal congestion due to a cold. […] The child then supplements the oral medication by using the composition of this Example, one spray into each nostril, following each dose of the oral medication.

CN[C@@H](C)[C@@H](O)c1ccccc1 [pseudophedrine]
relief of nasal congestion, oral medication alone: limited relief
